This is an account of results in US20130071328A1, “Propynoic Acid Carbamoyl Methyl-Amides and Pharmaceutical Compositions and Methods Based Thereon” (UNIVERSITY OF SOUTHERN CALIFORNIA, priority 2011, published 2013).

In general, IC50 refers to the concentration that gives 50% inhibition. A low value points to inhibition by little substance.

The subject of test [1] is HEY ovarian cancer cell line. As to the kind of experiment: Cytotoxicity assay, HEY. The note with it: Homo sapiens; MTT, 72 h exposure (Table 2). It counts as cell-based. The gist of the method: (§1)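 Cells were seeded, allowed to attach overnight, then exposed continuously to drug for 72 h. MTT (0.5 mg/mL final) was added for 4 h at 37 °C, formazan was dissolved in DMSO and absorbance read at 570 nm. IC50 came from log(drug concentration) versus percent cells killed, triplicate.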

Test [2] deals with HT29 colon cancer cell line. As to the kind of experiment: MTT cytotoxicity assay, HT29. The format is cell-based. To be noted: Homo sapiens, HT-29, 72 h exposure. The gist of the method: as §1
Test [3] deals with UMUC3 bladder cancer cell line. Briefly: MTT cytotoxicity assay, UMUC3. It counts as cell-based. To be noted: Homo sapiens, 72 h exposure. A digest of the protocol:
as §1

Test [4] relates to HCT116 p53^−/− colon cancer cell line. As to the kind of experiment: MTT cytotoxicity assay, HCT116 p53-/-. The format is cell-based. The note with it: Homo sapiens, HCT-116, 72 h exposure. A digest of the protocol: as §1
A general note: Tetrazolium assays rely on reduction of a dye to a coloured formazan, in cell work by metabolically active cells.

The subject of a further test is p53. As to the kind of experiment: Western blotting of p53 protein level. The format is cell-based, human. To be noted: MDA-MB-435 cells, 1 μM, 24 to 72 hours. The protocol: (§2) Cells were detached using 1×trypsin-EDTA solution and collected by centrifugation at 1200 rpm for 5 min. Cells were then lysed in 80 μL of 1× cell lysis buffer (50 mM Tris-HCl, pH 7.5, 150 mM NaCl, and 1% NP-40) and pelleted by centrifugation at 14,000 rpm for 20 min at 4° C. Protein concentration of the whole cell lysates was measured using BCA protein assay and equal amounts of total protein were resolved on a 10% tris-glycine gel via SDS-PAGE. The separated proteins were electro-blotted onto nitrocellulose membrane and blocked in 5% BSA/PBS for 1 h at room temperature. The membrane was probed with anti-p53 (SC-126, Santa Cruz Biotechnology Inc.), anti-caspase 9 (Cat. no. 9508; Cell Signaling Technology), anti-a-tubulin (SC-5286, Santa Cruz Biotechnology Inc.), and anti-GAPDH(Y3322GAPDH, Biochain Institute, Inc.) antibodies at 4 C overnight. Horseradish peroxidase-conjugated secondary antibodies (Invitrogen, Carlsbad, Calif.) in combination with SuperSignal Dura (ThermoFisher, Rockford, Ill.) enhanced chemiluminescence (ECL) solutions were used to visualize proteins of interest with a ChemiDoc Imaging system (Bio-Rad, Hercules, Calif.).
On the technique in general: Immunoblotting shows a protein as a band on a membrane.

For test [5], the system named is MDA-MB-435 cells. Briefly: Apoptosis assay, annexin V/propidium iodide flow cytometry. The format is cell-based, human. The protocol: To quantify drug-induced apoptosis, annexin V/propidium iodide staining was performed and analyzed by flow cytometry. MDA-MB-435 cells were treated with 10 μM compound 1, 2, or 4 for 24 and 48 h. After treatment, both floating and adherent cells were combined and subjected to annexin V/propidium iodide staining using an annexin V-FITC apoptosis detection kit (Oncogene Research Products, San Diego, Calif.) according to manufacturer's recommendations. Untreated control cells (48 h) were maintained in parallel to drugtreated groups. Double staining was used to distinguish between viable, early apoptotic, and necrotic or late apoptotic cells. The resulting fluorescence (FITC-A channel for green fluorescence and PE-A channel for red fluorescence) was measured by flow cytometry using a BD LSRII flow cytometer (BD Biosciences, San Jose, Calif.).
Background: In flow cytometry, cells or beads pass a laser one at a time.

The test system of the next test is SOD1. As to the kind of experiment: Kinexus 628-antibody microarray. The format is cell-based, human. To be noted: MDA-MB-435 cells, 0.1 μM, 24 h. From the text: To better understand the mechanisms of action of this class of novel PACMA compounds, we subjected cell lysates from untreated and compound 1-treated MDA-MB-435 cells to the Kinexus 628-antibody microarray analysis in search of potential signaling molecules; 350 pan-specific and 270 phospho-site antibodies were included to track changes in protein expression and phosphorylation status. The cell lysates were run in parallel on the Kinexus antibody chip and the differential binding of dye-labeled proteins was detected and quantified. Proteins with significant expression changes were then identified and used as the basis for signaling pathway interpretation.
MDA-MB-435 cells were treated with 0.1 μM compound 1 for 24 h. After treatment, cells were washed with ice-cold PBS to remove residual medium. Cells were then lysed in 200 μL of lysis buffer (20 mM MOPS, pH 7.0, 2 mM EGTA, 5 mM EDTA, 30 mM sodium fluoride, 60 mM β-glycerophosphate, pH 7.2, 20 mM sodium pyrophosphate, 1 mM sodium orthovanadate, 1 mM phenylmethylsulfonylfluoride, 3 mM benzamidine, 5 μM pepstatin A, 10 μM leupeptin, 1% Triton X-100, 1 mM dithiothreitol) and collected into a microcentrifuge tube. […] The supernatants were then transferred to a cleanmicrocentrifuge tube, and the protein concentrations were measured using BCA protein assay. […]

For test [6], the system named is HCT116 p53^+/+ colon cancer cell line. As to the kind of experiment: MTT cytotoxicity assay, HCT116 p53+/+. The format is cell-based. To be noted: Homo sapiens, HCT-116, 72 h exposure. The gist of the method: as §1
In test [7] the test system is doxorubicin-resistant NCI/ADR-RES ovarian cancer cell line. Briefly: Cytotoxicity assay, NCI/ADR-RES. It counts as cell-based. To be noted: Homo sapiens, MTT, 72 h exposure (Table 2). The gist of the method:
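Cells attached overnight, then continuously exposed to drug for 72 h. MTT (0.5 mg/mL final) added 4 h at 37 °C, formazan dissolved in DMSO, absorbance at 570 nm, triplicates; IC50 from log concentration versus % cells killed.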

The subject of test [8] is 5637 bladder cancer cell line. Briefly: MTT cytotoxicity assay, 5637. The note with it: Homo sapiens, 72 h exposure. It counts as cell-based, human. A digest of the protocol:
as §1

In the next test the test system is caspase-9. As to the kind of experiment: Western blotting of full-length caspase-9 protein level. To be noted: MDA-MB-435 cells, 1 μM, after 24 hours, maintained up to 72 hours. The format is cell-based, human. The procedure:
as §2

Test [9] relates to MDA-MB-435 cells. Briefly: Mitochondrial superoxide production (MitoSOX Red). The format is cell-based, human. The note with it: IC50 or 3×IC50, 24 hours. The protocol: After drug treatments, a solution of 5 μM MitoSOX Red mitochondrial superoxide indicator (Invitrogen, Carlsbad, Calif.) was added, and cells were incubated for 10 min at 37° C. Cells were then washed three times with Hank's balanced salt solution (HBSS) to remove excess MitoSOX. After washing, cells were either observed under the fluorescence microscope or collected by trypsinization, washed twice with HBSS, and measured for superoxide production using a BD LSRII flow cytometer (BD Biosciences, San Jose, Calif., USA). Data were analyzed with the BD FACSDiva software package (BD Biosciences, San Jose, Calif., USA).

Turning to `C#CC(=O)N(c1cc(OC)cc(OC)c1)C(C(=O)NC1CCCCC1)c1ccc(OC)cc1` (stereo not drawn) [Compound 1, N-[2-(Cyclohexylamino)-1-(4-methoxyphenyl)-2-oxoethyl]-N-(3,5-dimethoxyphenyl)Propynamide], the 50% inhibitory concentration (IC50) in [1] is 4.4 ± 3 µM; in [2], 6.3 ± 1.5 µM; in [3], over 20 µM; in [4], 11 µM; in test [6], 12.5 ± 2.1 µM; in test [7], 0.3 µM. Besides, half-maximal inhibition in test [8] (IC50) required 2.2 ± 0.2 µM. Further, the p53 protein level result in the test on p53 is reported as “up-regulated”. Besides, in the test on MDA-MB-435 cells [5] (10 μM, 24 hours), the “induction of early apoptosis” value is “failed to induce early apoptosis”. In the test on MDA-MB-435 cells [5] (10 μM, 48 h), the “increase in early apoptotic cells” value stood at 8%. Besides, the “percentage of late apoptotic cells” value in the test with MDA-MB-435 cells [5] (10 μM, 48 hours) is on record as 35%. Besides, the induction of apoptosis entry in the test on MDA-MB-435 cells [5] (24 and 48 hours) is reported as “induce apoptosis”. The SOD1 expression result with SOD1 is recorded as “up-regulated”. Besides, the “decrease in full-length caspase-9 protein level” value in the test with caspase-9 is given as 2 fold. Also, the “mitochondrial superoxide production, flow cytometry” value in the test on MDA-MB-435 cells [9] is “induce significant amounts of superoxide”.
